Assays:
human P2X3 receptor = human P2X3 receptor (Homo sapiens (Human), UniProt P56373); assay: Evaluation of human P2X3 receptor inhibitory activity (ATP-induced Fluo-3 fluorescence, FDSS 3000); format: cell-based; conditions: C6BU-1 cell transfected with human P2X3 receptor gene
Description: The plate was placed in High-Throughput Screening System FDSS 3000 (Hamamatsu Photonics K.K.). […] Five minutes after, 50 nM ATP solution (50 μL) prepared by dilution with the dilution buffer was dispensed through the built-in automatic dispenser, and the measurement of fluorescence intensity was continued for 3 min. For each well, the specific maximum fluorescence intensity was calculated as the ratio of the maximum fluorescence intensity after addition of the ATP solution to the fluorescence intensity at the starting of the measurement. […] FDSS software (Hamamatsu Photonics K.K.) was used for calculation of the specific maximum fluorescence intensity. IC50 was calculated using Microsoft Excel (Microsoft. Corporation) and XLfit (idbs Ltd.)
The aforementioned in mM, μM and nM are each means mmol/L, μmol/L and nmol/L, respectively.
In tables, μM means μmol/L.

[1] = Bioavailability (BA) test; format: in vivo; conditions: plasma; Mice or SD rats; oral 0.3 to 30 mg/kg vs intravenous 0.5 to 10 mg/kg; from AUCs
Description: Materials and Methods for Experiment of BA
• (1) Animals: Mice or SD rats were used • (2) Breeding conditions: Mice or SD rats were allowed to freely take solid food and sterilized tap water. • (3) Dose and grouping: orally or intravenously administered at a predetermined dose; grouping was as follows (Dose depends on the compound) Oral administration: 0.3 to 30 mg/kg (n=2 to 3) Intravenous administration: 0.5 to 10 mg/kg (n=2 to 3) • (4) Preparation of dosing solution: for oral administration, in a solution or a suspension state; for intravenous administration, in a solubilized state • (5) Administration method: in oral administration, forcedly administer into ventriculus with oral probe; in intravenous administration, administer from caudal vein with a needle-equipped syringe • (6) Evaluation items: blood was collected over time, and the plasma concentration of drug was measured by LC/MS/MS • (7) Statistical analysis: regarding the transition of the plasma concentration of the present compound, the area under the plasma concentration-time curve (AUC) was calculated by non-linear least squares program WinNonlin (Registered trade name), and the bioavailability (BA) was calculated from the AUCs of the oral administration group and intravenous administration group

Solubility test = format: physicochemical; conditions: 25 °C, other biorelevant, kinetic from dmso stock
Description: The solubility of a compound was determined under a condition in which 1% DMSO was added. 10 mmol/L compound solution was prepared using DMSO, and then 6 μL of the compound solution was added to 594 μL of artificial intestinal juice in […] (to 250 mL of 0.2 mol/L potassium dihydrogen phosphate reagent solution was added 118 mL of 0.2 mol/L NaOH reagent solution and water to provide a final volume of 1000 mL). After standing at 25 degrees Celsius for 16 hours, the mixed solution was filtrated with suction. The filtrate was diluted twice with methanol/water (1/1) and then a concentration in the filtration was measured with HPLC or LC/MS/MS by the absolute calibration method.

[2] = Metabolism stability test (pooled human hepatic microsomes); format: in vitro ADME; conditions: human liver microsomes 0.5 mg protein/mL; 37° C., 30 minutes; 1 mmol/L NADPH; compound concentration 0.5 μmol/L
Description: Using commercially available pooled human hepatic microsomes, a test compound was reacted for a constant time, a remaining rate was calculated by comparing a reacted sample and an unreacted sample, thereby, a degree of metabolism in liver was assessed.
A reaction was performed (oxidative reaction) at 37° C. for 0 minute or 30 minutes in the presence of 1 mmol/L NADPH in 0.2 mL of a buffer (50 mmol/L tris-HCl pH 7.4, 150 mmol/L potassium chloride, 10 mmol/L magnesium chloride) containing 0.5 mg protein/mL of human liver microsomes. After the reaction, 50 μL of the reaction solution was added to 100 μL of a methanol/acetonitrile 1/1 (v/v), mixed and centrifuged at 3000 rpm for 15 minutes. The test compound in the supernatant was quantified by LC/MS/MS, and a remaining amount of the test compound after the reaction was calculated, letting a compound amount at 0 minute reaction time to be 100%.

CYP3A4 = CYP3A4 (Homo sapiens (Human), UniProt P08684); assay: CYP3A4 fluorescent MBI test; format: in vitro ADME; conditions: pre-reaction time 0 or 30 minutes; substrate 7-BFC; CYP3A4 expressed in Escherichia coli
Description: The CYP3A4 fluorescent MBI test is a test of investigating enhancement of CYP3A4 inhibition of a compound by a metabolism reaction, and the test is performed using, as CYP3A4 enzyme expressed in Escherichia coli and employing, as an index, a reaction in which 7-benzyloxytrifluoromethylchmarin (BFC) is debenzylated by the CYP3A4 enzyme to produce a metabolite, 7-hydroxytrifluoromethylchmarin (HFC) emitting fluorescent light.
The reaction conditions were as follows: substrate, 5.6 μmol/L 7-BFC; pre-reaction time, 0 or 30 minutes; reaction time, 15 minutes; reaction temperature, 25° C.
An enzyme in a K-Pi buffer (pH 7.4) and a test drug solution as a pre-reaction solution were added to a 96-well plate at the composition of the pre-reaction, a part of it was transferred to another 96-well plate so that it was 1/10 diluted by a substrate in a K-Pi buffer, NADPH as a co-factor was added to initiate a reaction as an index (without preincubation) and, after a predetermined time of a reaction, acetonitrile: 0.5 mol/L Tris (trishydroxyaminomethane)=4:1 was added to stop the reaction. In addition, NADPH was added to a remaining preincubation solution to initiate a preincubation (with preincubation) and, after a predetermined time of a preincubation, a part was transferred to another plate so that it was 1/10 diluted with a substrate and a K-Pi buffer to initiate a reaction as an index, After a predetermined time of a reaction, acetonitrile: 0.5 mol/L Tris (trishydroxyaminomethane)=4:1 was added to stop the reaction. For the plate on which each index reaction had been performed, a fluorescent value of 7-HFC which is a metabolite was measured with a fluorescent plate reader. (Ex=420 nm, Em=535 nm).
Addition of only DMSO which is a solvent dissolving a drug to a reaction system was adopted as a control (100%), remaining activity (%) was calculated at each concentration of a test drug added as the solution, and IC50 was calculated by reverse-presumption by a logistic model using a concentration and an inhibition rate. When a difference between IC50 values is 5 or more, this was defined as (+) and, when the difference is 3 μmol/L or less, this was defined as (−).

[3] = artificial intestinal juice (phosphate buffer) with 1% DMSO, artificial intestinal juice in pH 8.8, 25 degrees Celsius for 16 hours

Sequence of human P2X3 receptor (P56373 whole entry): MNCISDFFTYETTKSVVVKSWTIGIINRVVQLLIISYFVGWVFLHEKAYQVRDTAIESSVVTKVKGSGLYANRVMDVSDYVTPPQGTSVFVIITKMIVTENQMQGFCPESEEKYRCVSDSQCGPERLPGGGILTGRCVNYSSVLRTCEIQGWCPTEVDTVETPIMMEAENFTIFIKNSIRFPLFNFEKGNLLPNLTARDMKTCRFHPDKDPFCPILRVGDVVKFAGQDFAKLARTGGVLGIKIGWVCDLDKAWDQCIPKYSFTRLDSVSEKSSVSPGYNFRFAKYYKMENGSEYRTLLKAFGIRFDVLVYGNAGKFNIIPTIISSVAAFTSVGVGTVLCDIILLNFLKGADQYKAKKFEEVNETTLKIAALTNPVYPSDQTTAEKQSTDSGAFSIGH
Sequence of CYP3A4 (P08684 whole entry): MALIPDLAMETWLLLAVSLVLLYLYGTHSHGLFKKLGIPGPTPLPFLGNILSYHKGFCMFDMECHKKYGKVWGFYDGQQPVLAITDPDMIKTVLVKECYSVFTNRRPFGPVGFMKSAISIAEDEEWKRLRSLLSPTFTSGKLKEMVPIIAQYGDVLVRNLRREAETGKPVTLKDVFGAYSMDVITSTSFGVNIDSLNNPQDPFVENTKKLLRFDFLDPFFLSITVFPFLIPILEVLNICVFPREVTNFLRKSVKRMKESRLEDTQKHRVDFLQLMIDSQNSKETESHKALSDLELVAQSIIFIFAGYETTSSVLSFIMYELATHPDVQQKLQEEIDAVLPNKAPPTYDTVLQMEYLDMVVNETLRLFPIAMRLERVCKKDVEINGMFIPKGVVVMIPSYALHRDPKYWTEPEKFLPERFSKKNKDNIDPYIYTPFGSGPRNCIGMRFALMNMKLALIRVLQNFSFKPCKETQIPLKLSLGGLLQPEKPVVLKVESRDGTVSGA

Row | SMILES | IC50 (human P2X3 receptor) [µM] | other results
1 | CC(C)Oc1ccc(Nc2cc(=O)n(CC(C)(C)C(=O)O)c(=O)n2Cc2ccc(Cl)cc2)cc1F [I-021] | 0.019 | bioavailability [1]: 49.1%
2 | CC(C)Oc1ccc(Nc2cc(=O)n(CC(=O)NCCO)c(=O)n2Cc2ccc(Cl)cc2)cc1F [I-112, 1-(4-chlorobenzyl)-6-(3-fluoro-4-isopropoxyphenylamino)-3-(2-hydroxyethylcarbamoylmethyl)pyrimidine-2,4(1H,3H)-dion] | 0.014 | solubility at 16 h (Solubility test; 1% DMSO, artificial intestinal juice in pH 8.8, 25 degrees Celsius for 16 hours): > 50 µM
3 | CC(C)Oc1ccc(Nc2nc(=O)c(CCC(=O)O)cn2Cc2ccc(Cl)cc2)cc1Cl [I-117] | – | solubility at 16 h (Solubility test; [3]): > 50 µM
4 | CCOC(=O)c1cn(Cc2ccc(Cl)cc2)c(Nc2ccc(OC(C)C)c(F)c2)nc1=O [I-131, 1-(4-chlorobenzyl)-2-(3-fluoro-4-isopropoxyphenylamino)-5-(ethoxycarbonyl)pyrimidine-4(1H)-one] | – | remaining rate [2]: 92%
5 | Cc1cc(Nc2cc(=O)n(C[C@H](C)C(=O)O)c(=O)n2Cc2ccc(Cl)cc2)ccc1OC(C)C [I-215] | 0.024 | bioavailability [1]: 49.7%
6 | Cc1nc2ccc(Nc3nc(=O)c(C(=O)NC4CCOCC4)cn3Cc3ccc(Cl)cc3)cc2s1 [I-286] | 0.008 | bioavailability [1]: 41.7%
7 | CC(C)Oc1ccc(Nc2ncc(NC(=O)NC3CCOCC3)c(=O)n2Cc2ccc(Cl)cc2)cc1F [I-289] | 0.007 | remaining rate [2]: 89%
8 | Cc1nc2ccc(Nc3nc(=O)c(C(=O)NCCCO)cn3Cc3ccc(Cl)cc3)cc2s1 [I-299] | 0.111 | solubility at 16 h (Solubility test; [3]): > 50 µM
9 | Cc1ncc(Oc2ccc(Nc3ncc(NC(=O)C4CCOCC4)c(=O)n3Cc3ccc(Cl)cc3)cc2)cc1F [I-313] | 0.003 | bioavailability [1]: 28.5%
10 | CCn1c(=O)cc(Nc2ccc(Oc3cncc(C(=O)O)c3)cc2)n(Cc2ccc(Cl)cc2)c1=O [I-315] | 0.006 | remaining rate [2]: 105%; IC50 difference (CYP3A4): < 3 µM
11 | CCn1c(=O)cc(Nc2ccc(Oc3ccnc(C(=O)OC)c3)cc2)n(Cc2ccc(Cl)cc2)c1=O [I-316] | 0.009 | –
12 | CCn1c(=O)cc(Nc2ccc(Oc3ccnc(C(=O)O)c3)cc2)n(Cc2ccc(Cl)cc2)c1=O [I-317] | 0.003 | –
13 | Cc1nc2ccc(Nc3ncc(NC(=O)OC(C)(C)C)c(=O)n3Cc3ccc(Cl)cc3)cc2s1 [I-318] | 0.009 | –
14 | Cc1nc2ccc(Nc3ncc(NC(=O)OCc4ccccc4)c(=O)n3Cc3ccc(Cl)cc3)cc2s1 [I-319] | 0.105 | –
15 | CCC1(CC)C(=O)N/C(=N\c2ccc(OC(C)C)cc2)N(Cc2ccc(Cl)cc2)C1=O [I-327] | 0.867 | –
16 | Cc1nc(Nc2ccc(OC(C)C)cc2)n(Cc2ccc(Cl)cc2)c(=O)c1Cc1ccccc1 [I-330] | 0.35 | –
17 | CC(C)NC(=O)c1c(O)[nH]/c(=N\c2ccc(OC(C)C)cc2)n(Cc2ccc(Cl)cc2)c1=O [I-332] | 0.504 | –
18 | COC(=O)CCNC(=O)c1c(O)[nH]/c(=N\c2ccc(OC(C)C)cc2)n(Cc2ccc(Cl)cc2)c1=O [I-333, 1-(4-chlorobenzyl)-3-(2-methoxycarbonylethyl)carbamoyl-4-hydroxy-6-(4-isopropoxyphenylimino)-2,3-dihydro-pyrimidine-4-one] | 0.115 | –
19 | CCOC(=O)c1c(O)[nH]/c(=N\c2ccc(OC(C)C)cc2)n(Cc2ccc(Cl)cc2)c1=O [I-334] | 0.188 | –

Row | SMILES | IC50 (human P2X3 receptor) [µM] | other results
20 | CC(=O)Nc1c(O)[nH]/c(=N\c2ccc(OC(C)C)cc2)n(Cc2ccc(Cl)cc2)c1=O [I-339, 1-(4-chlorobenzyl)-3-acetylamino-4-hydroxy-6-(4-isopropoxyphenylimino)-2,3-dihydro-pryimidine-4-one] | 0.518 | –
21 | CC(C)Oc1ccc(/N=c2\[nH]c(O)c(NC(=O)C(C)C)c(=O)n2Cc2ccc(Cl)cc2)cc1 [I-341] | 0.681 | –
22 | Cc1cc(=O)n(Cc2ccc(Cl)cc2)c(Nc2ccc3nc(C)sc3c2)n1 [I-343] | 0.694 | –
23 | CCOC(=O)c1c(C)nc(Nc2ccc3nc(C)sc3c2)n(Cc2ccc(Cl)cc2)c1=O [I-345] | 0.273 | –
24 | Cc1nc2ccc(Nc3nc(C)c(C(N)=O)c(=O)n3Cc3ccc(Cl)cc3)cc2s1 [I-347] | 0.182 | –
25 | Cc1nc2ccc(Nc3nc(C)c(NC(=O)OC(C)(C)C)c(=O)n3Cc3ccc(Cl)cc3)cc2s1 [I-348] | 0.105 | –
26 | Cc1nc2ccc(Nc3nc(C)c(Br)c(=O)n3Cc3ccc(Cl)cc3)cc2s1 [I-349] | 0.28 | –
27 | C=Cc1c(C)nc(Nc2ccc3nc(C)sc3c2)n(Cc2ccc(Cl)cc2)c1=O [I-350] | 0.385 | –
28 | CCc1c(C)nc(Nc2ccc3nc(C)sc3c2)n(Cc2ccc(Cl)cc2)c1=O [I-351] | 0.146 | –
29 | COC(=O)CCCn1c(=O)cc(Nc2ccc3nc(C)sc3c2)n(Cc2ccc(Cl)cc2)c1=O [I-352] | 0.024 | –
30 | Cc1nc2ccc(Nc3cc(=O)n(CCOC4CCCCO4)c(=O)n3Cc3ccc(Cl)cc3)cc2s1 (stereo not shown) [I-353] | 0.009 | –
31 | Cc1nc2ccc(Nc3cc(=O)n(CCO)c(=O)n3Cc3ccc(Cl)cc3)cc2s1 [I-355] | 0.057 | –
32 | CC(=O)N1CCC(C(=O)Nc2cnc(Nc3ccc4nc(C)sc4c3)n(Cc3ccc(Cl)cc3)c2=O)CC1 [I-356] | 0.018 | solubility at 16 h (Solubility test; [3]): > 50 µM
33 | COC(=O)c1cccc(Oc2ccc(Nc3ncc(NC(=O)C4CCOCC4)c(=O)n3Cc3ccc(Cl)cc3)cc2)c1 [I-357] | 0.003 | –
34 | CC(=O)OC(C)(C)C(=O)Nc1cnc(Nc2ccc3nc(C)sc3c2)n(Cc2ccc(Cl)cc2)c1=O [I-358] | 0.016 | –
35 | O=C(O)c1cccc(Oc2ccc(Nc3ncc(NC(=O)C4CCOCC4)c(=O)n3Cc3ccc(Cl)cc3)cc2)c1 [I-359] | 0.002 | remaining rate [2]: 101%; IC50 difference (CYP3A4): < 3 µM
36 | Cc1nc2ccc(Nc3ncc(NC(=O)C(C)(C)O)c(=O)n3Cc3ccc(Cl)cc3)cc2s1 [I-360] | 0.003 | –
37 | Cc1nc2ccc(Nc3ncc(NC(=O)C(CO)CO)c(=O)n3Cc3ccc(Cl)cc3)cc2s1 [I-361] | 0.01 | –
